In publication PMC10603954, “Bacterial Tyrosinase Inhibition, Hemolytic and Thrombolytic Screening, and In Silico Modeling of Rationally Designed Tosyl Piperazine-Engrafted Dithiocarbamate Derivatives” (Biomedicines, 2023):
Like-named read-outs stand apart in the source and are kept apart here.

Assays:
clot = test: Thrombolytic activity (clot lysis); parameters: species or system albino mice; details: 100 µL sample in DMSO, 37 °C, 3 h
Excerpt: Blood samples were collected from albino mice and relocated to numerous cleaned and weighed-up eppendorf tubes. […] Blood serum was cast-off from these tubes and weighed in the eppendorf tubes to calculate the preliminary weight of the clot (clot weight = weight of the eppendorf with the clot minus the weight of the empty eppendorf). […] In this methodology, ABTS was used as a positive control, while water was used as a negative control. Serum was again removed and weighed in the eppendorf tubes to measure clot lysis.

[1] = target: bacterial tyrosinase (Bacillus subtilis NA2); parameters: method as in PMID 36142889; details: reference standard; read-out: IC50 (µM) Tyrosinase Inhibition; cited from earlier work
Tyrosinase = details: Figure 3; no reference given; read-out: Tyrosinase inhibtors IC50; cited from earlier work
[2] = target: bacterial tyrosinase (Bacillus subtilis NA2); test: Tyrosinase inhibition, spectrophotometric L-Dopa assay; type: biochemical; details: for IC50: bacterial tyrosinase, L-Dopa substrate, PBS pH 6.8; for optical density at varied incubation times: incubation 10, 20 and 30 min (Figure 6)
Description: IC50 values were obtained using a spectrophotometer assay. The protocol involved the addition of 2 mL of 1/2 mM L-Dopa in a 67.0 mM PBS (phosphate buffer saline) solution of pH 6.8 to the 800 µL solution of target molecules in DMSO. A total of 0.1 mL of the enzyme solution (tyrosinase) was dissolved in this mixture, and the starting rate of linear increase was measured in the optical density after 10, 20, and 30 min of incubation time, respectively. Thus, optical density increases or decreases with the presence of dopachrome.
The inhibition potential of these derivatives was also studied at varied incubation times.

Hemolytic activity = type: cell-based, albino mice; details: albino, mouse, red blood cells (RBC pellet from blood), pH 7.4; 20 µL sample (10 mg/mL) with 180 µL RBC, 37 °C, half an hour
Description: A blood sample of 5 mL of volume from albino mice was taken and subjected to centrifugation at 1000 rpm for 5 min. RBC pellets were secluded and splashed 3–4 times using chilled buffer solutions that had pH values of 7.4, such as the phosphate buffer saline (PBS). A solution sample in a volume of 20 µL (10 mg/mL) was taken and added to a 180 µL RBC pellet. […] A sample tube was taken from the incubator and lowered to room temperature in an ice bath for 5 min. The sample was again centrifuged at 13,000 rpm for 5 min. A total of 100 µL of supernatant was collected from each tube and diluted with the ice-cold phosphate buffered saline.

Structure (SMILES)	IC50 [2] [µM]	optical density at varied incubation times [2]	melting point [°C]	% Thrombolysis (clot) [%]	IC50 [1] [µM]	IC50 (Tyrosinase) [µM]	hemolysis at 0.5 h, 1 mg/mL (Hemolytic activity) [%]
CCn1c(=NN=c2sc3cc(S(=O)(=O)O)ccc3n2CC)sc2cc(S(=O)(=O)O)ccc21 [ABTS, 2,2′-azino-bis(3-ethylbenzothiazoline-6-sulfonic acid), reference compound]				80			
O=C1O[C@H]([C@@H](O)CO)C(O)=C1O [Ascorbic Acid]					11.5 ± 1		
O=C(c1ccccc1)N1CCN(Cc2ccc(F)cc2)CC1 [Compound 2d]						13.3	
O=C(c1cccc(Cl)c1[N+](=O)[O-])N1CCN(Cc2ccc(F)cc2)CC1 [Compound 2e]						0.18	
O=S(=O)(c1ccc(CN2CCN(c3ccccc3)CC2)cc1)N1CCCCC1 [Compound 2f]						0.06	
Cc1ccc(NC(=O)CCCN2CCN(C/C=C/c3ccccc3)CC2)c(C)c1 [Compound 2g]						0.01	
COc1cccc(/C=C/C(=O)N2CCN(c3ccc(F)c(Cl)c3)CC2)c1Cl [Compound 2h]						0.12	
O=c1cc(CO)occ1O [Kojic Acid, Kojic acid, reference compound]	30.3 ± 0.75						

Second part, led by results:

IC50 [2] [µM]	optical density at varied incubation times [2]	melting point [°C]	Structure (SMILES)	% Thrombolysis (clot) [%]	IC50 [1] [µM]	IC50 (Tyrosinase) [µM]	hemolysis at 0.5 h, 1 mg/mL (Hemolytic activity) [%]
34.8 ± 0.99	linear decrease in optical density		Cc1ccc(S(=O)(=O)N2CCN(C(=S)SCC(=O)Nc3ccccc3)CC2)cc1 [Compound 4a, 2-Oxo-2-(phenylamino)ethyl 4-tosylpiperazine-1-carbodithioate]	62.3 ± 0.41			0.55 ± 0.03
8.01 ± 0.11	highest optical density	180	Cc1ccc(S(=O)(=O)N2CCN(C(=S)SCC(=O)Nc3ccccc3Cl)CC2)cc1 [Compound 4b, 2-((2-Chlorophenyl)amino)-2-oxoethyl 4-tosylpiperazine-1-carbodithioate]	54.43 ± 0.23			0.29 ± 0.01
8.1 ± 0.3			Cc1ccc(S(=O)(=O)N2CCN(C(=S)SCC(=O)Nc3ccccc3F)CC2)cc1 [Compound 4c, 2-((2-Fluorophenyl)amino)-2-oxoethyl 4-tosylpiperazine-1-carbodithioate]	56.76 ± 0.15			6.6 ± 0.37
6.88 ± 0.11		175	COc1ccc(NC(=O)CSC(=S)N2CCN(S(=O)(=O)c3ccc(C)cc3)CC2)cc1 [Compound 4d, 2-((4-Methoxyphenyl)amino)-2-oxoethyl 4-tosylpiperazine-1-carbodithioate]	52.4 ± 0.2			15.6 ± 0.5
11.1 ± 0.4			Cc1ccc(S(=O)(=O)N2CCN(C(=S)SCC(=O)Nc3ccc(Cl)cc3)CC2)cc1 [Compound 4e, 2-((4-Chlorophenyl)amino)-2-oxoethyl 4-tosylpiperazine-1-carbodithioate]	67.3 ± 0.2			7.5 ± 0.4
10.3 ± 0.26			Cc1ccc(S(=O)(=O)N2CCN(C(=S)SCC(=O)Nc3ccc(F)cc3)CC2)cc1 [Compound 4f, 2-((4-Fluorophenyl)amino)-2-oxoethyl 4-tosylpiperazine-1-carbodithioate]	56.53 ± 0.55			4.53 ± 0.35
7.24 ± 0.15	linear decrease in optical density	185	Cc1ccc(S(=O)(=O)N2CCN(C(=S)SCC(=O)Nc3ccc(C)cc3C)CC2)cc1 [Compound 4g, 2-((2,4-Dimethylphenyl)amino)-2-oxoethyl 4-tosylpiperazine-1-carbodithioate]	55.26 ± 0.15			1.53 ± 0.35
13.25 ± 0.11	linear decrease in optical density	190	COc1ccc(OC)c(NC(=O)CSC(=S)N2CCN(S(=O)(=O)c3ccc(C)cc3)CC2)c1 [Compound 4h, 2-((2,5-Dimethoxyphenyl)amino)-2-oxoethyl 4-tosylpiperazine-1-carbodithioate]	60.83 ± 0.14			11.3 ± 0.22
19.2 ± 0.47	linear decrease in optical density		Cc1ccc(S(=O)(=O)N2CCN(C(=S)SCC(=O)Nc3ccc(Cl)c(Cl)c3)CC2)cc1 [Compound 4i, 2-((3,4-Dichlorophenyl)amino)-2-oxoethyl 4-tosylpiperazine-1-carbodithioate]	54.38 ± 0.53			12.8 ± 0.35
11.11 ± 0.1	linear decrease in optical density		Cc1ccc(S(=O)(=O)N2CCN(C(=S)SCC(=O)Nc3ccc(C)c(C)c3)CC2)cc1 [Compound 4j, 2-((3,4-Dimethylphenyl)amino)-2-oxoethyl 4-tosylpiperazine-1-carbodithioate]	56.6 ± 0.23			2.56 ± 0.3
